Measured values taken from patent US7354739B2, “TML polynucleotides” (ZymoGenetics, Inc., priority 1997, dated 2008).

What was measured:
[1] = Fourteen-day twice-daily oral dosing in ob/ob mice: body weight, food intake, glucose clearance; format: in vivo; settings: 1 μg/mouse orally twice daily for fourteen days
Description: Sixteen female ob/ob mice, 8 weeks old, (Jackson Labs, Bar Harbor, Me.) were adapted to a special 4 hour daily feeding schedule for two weeks. The were fed ad libitum from 7:30-11:30 am daily. After two weeks on the feeding schedule, the mice were divided into two groups of 8. One group was given 1.0 μg/mouse of zsig33-1 (14 amino acid peptide) and the other vehicle (a 14 amino acid scrambled sequence peptide) in 100 μl sterile 0.1% BSQA by oral gavage just prior to receiving food, and at the end of the 4 hour feeding period. The mice were […] twice daily for fourteen days, during which time food intake and body weight was measured daily. On day 14, immediately after the second oral gavage of the zsig33-1 peptide, the mice were challenged orally with an 0.5 ml volume of 25% glucose. Retro-orbital bleeds were done to determine serum glucose levels immediately prior to administration of the zsig33-1 peptide or vehicle ([…].), and also at 0, 1, 2, and 4 hours following the glucose challenge.

[2] = tested on: antral portion of the stomach; test: Antral stomach contractions monitored by transducing crystals in anesthetized rats; format: in vivo, Sprague-Dawley rats
Source text: Two male Sprague-Dawley rats, approximately 12 weeks old (Harlan, Indianapolis, Ind.) were anesthetized with urethane and their stomachs were exposed through a small abdominal incision. Two 2.4 mm transducing crystals (Sonometrics, Ontario, Canada) were placed on the antral portion of the stomach such that circular contractions could be monitored as a change in the distance between the two crystals. The crystals were attached with VETBOND TISSUE ADHESIVE (3M, St. Paul, Minn.).
The amplitude of the NE-induced decrease was approximately 50% of the acetylcholine-induced increase in distance. Both responses were transient.
A negative control of 10 μl of phosphate buffer solution (PBS) applied topically between the crystals had no effect.
A 14 amino acid zsig33 peptide (from amino acid residue 24 (Gly) to amino acid residue 37 (Gln) of SEQ ID NO: 2) was dissolved in PBS) and 10 μl was applied topically for a final concentration of 1 μg, […]

[3] = tested on: stomach; test: Transit of phenol red through the stomach (gastric emptying) of fasted rats; format: in vivo, Sprague-Dawley rats; settings: 1 μg applied topically to the stomach; 30 minutes after gavage; compared to a scrambled peptide
Description: The effect of topically applied zsig33 peptide (amino acid 24 to 37 of SEQ ID NO: 2) on the transit of phenol red through the stomachs of fasted male Sprague-Dawley rats (Harlan, Indianapolis, Ind.) was evaluated. The rats (6 animals, 8 weeks old) were fasted 24 hrs prior to being anesthetized with urethane(0.5 ml/100 grams of 25% solution). After anesthetizing, the animals were orally gavaged with 1 ml of Phenol Red solution (50 mg/ml in 2% methylcellulose solution). The stomach of each animal was exposed through a small abdominal incision and either 1 μg zsig33 peptide or a 14 amino acid control of a scrambled sequence peptide was applied topically to the stomach five minutes following the gavage. The amount of Phenol Red remaining in the stomach was determined by measuring optical density of the extracted stomach contents 30 minutes after the gavage.

[4] = tested on: post-prandial glucose absorption; test: Oral glucose challenge after oral zsig33 peptide in ob/ob mice; format: in vivo; settings: 100 μg orally, 30 minutes prior to an oral glucose challenge
Description: Eight female ob/ob mice, approximately 6 weeks old (Jackson Labs, Bar Harbor, Me.) were adapted to a 4 hour daily feeding schedule for two weeks. After two weeks on the feeding schedule, the mice were give 100 μg of a 14 amino acid amino zsig33 peptide (from amino acid residue 24 (Gly) to amino acid residue 37 (Gln) of SEQ ID NO: 2) in 100 μl sterile 0.1% BSA by oral gavage, immediately after their eating period (post-prandially). Thirty minutes later, the mice were challenged orally with a 0.5 ml volume of 25% glucose. Retroorbital bleeds were done to determine serum glucose levels. Blood was drawn prior to zsig33 dosing, prior to oral glucose challenge, and at 1, 2, 4, and 20 hours following the glucose challenge.

Row | Compound | daily body weight [1] | food intake [1] | change in crystal distance ([2]; 1 μg in 10 μl PBS applied topically) | rate and amplitude of the contractions (dose dependence) ([2]; 10 μg and 100 μg applied topically, compared with 1 μg) | reduction of the amount of Phenol Red remaining in the stomach [3] | post-prandial glucose absorption (serum glucose) [4] | amplitude of the NE-induced decrease relative to the acetylcholine-induced increase in distance ([2]; 10 μl of 1 μM applied topically) | change in the distance between the two crystals ([2]; 10 μl of 1 μM applied topically to the stomach between the crystals)
1 | zsig33-1: peptide corresponding to amino acid residue 24 (Gly) to residue 37 (Gln) of SEQ ID NO: 2; residues 1 to 14 of SEQ ID NO:11 (GSSFLSPEHQRVQQRKES; listed as Homo sapiens) | no affect | no affect | sustained, rhythmic increase and decrease in crystal distance | enhanced responses in both rate and amplitude | approximately 25% | enhanced post-prandial glucose absorption |  | 
2 | NC[C@H](O)c1ccc(O)c(O)c1 [norepinephrine, reference compound] |  |  |  |  |  |  | approximately 50% | reduction in the distance between the two crystals
